From ChEMBL document CHEMBL1201862, “PubChem BioAssay data set” (2004) come the findings set out here.

The term CC50 denotes the concentration giving 50% cytotoxicity. The IC50 is the concentration that inhibits the measured activity by half. For orientation: EC50 means the concentration that produces a half-maximal response. What is called AC50 is the midpoint of the concentration-response curve, whichever way the signal moves.

Experiment [1] is described as follows: HepG2 cell cytotoxicity, dose response, cytotoxicity control for non-replicating M. tuberculosis project (AID 489018). It is filed as functional. As to conditions: Mycobacterium tuberculosis.
The target in experiment [2] is Sphingosine 1-phosphate receptor 1 (Homo sapiens, UniProt P21453). It is filed as functional.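 Also: Tango beta-arrestin reporter U2OS cells stimulated with S1P near its EC80; inhibitor potency meaning antagonism of receptor activation by the natural agonist.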
Sphingosine 1-phosphate receptor 1, sequence (P21453 whole entry): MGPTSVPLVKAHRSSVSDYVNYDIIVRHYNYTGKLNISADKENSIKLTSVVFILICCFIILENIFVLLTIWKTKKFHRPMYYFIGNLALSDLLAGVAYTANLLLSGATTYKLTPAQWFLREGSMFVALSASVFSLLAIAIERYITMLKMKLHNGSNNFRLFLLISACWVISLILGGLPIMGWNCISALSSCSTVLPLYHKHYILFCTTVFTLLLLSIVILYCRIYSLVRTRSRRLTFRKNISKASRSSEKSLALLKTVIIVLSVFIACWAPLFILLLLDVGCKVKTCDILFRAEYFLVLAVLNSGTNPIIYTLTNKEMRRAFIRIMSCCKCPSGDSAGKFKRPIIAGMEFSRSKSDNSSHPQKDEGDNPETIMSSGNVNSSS
Experiment [3] can be described thus: NIH3T3 cell viability loss – ATP luminescence, mouse fibroblasts, counter-screen, dose response (AID 2010).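 Also: cells exposed to compound for about 90 hours before reading.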 The format is functional, cell-based. Background: The purpose of a counterscreen is to sort out artefacts and off-target activity.
A short description of experiment [4]: cells. It is filed as functional.
Experiment [5] in a line: Vero E6 cell cytotoxicity, dose response, cytotoxicity control for non-replicating M. tuberculosis project, secondary assay (AID 492998). As to conditions: Vero C1008. It is filed as functional, VeroE6.
Experiment [6] relates to INS1. As to the kind of experiment: INS-1E survival protection against cytokine death – cell-based, luminescence, retest, dose response (AID 449756).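 Also: cell death triggered by IL-1 beta plus TNF-alpha plus IFN-gamma mixture; protective hits raise ATP signal compared with cytokine alone wells.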 The format is functional. To be noted: Rattus norvegicus.
Experiment [7] is described as follows: Trypanosoma cruzi growth suppression in host cells – NIH3T3 host cells, beta-gal luminescence, confirmation (AID 2044).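 Also: intracellular parasites grown in NIH/3T3 mouse fibroblasts as host cells; luminescent beta-galactosidase reporter signal from transgenic T. cruzi replicating inside host cells; inhibitors lower the luminescence signal.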 The format is functional, cell-based.
Experiment [8] relates to HeLa. As to the kind of experiment: Cytotoxicity counterscreen assay for transcriptional activators of heat shock protein 70 (Hsp70). [Related pubchem assays: 1203, 1252 ]. It is filed as functional. To be noted: Homo sapiens.
The target in experiment [9] is T1, Replicative DNA helicase DnaB (Mycobacterium tuberculosis, UniProt P9WMR3).
T1 sequence (P9WMR3 whole entry): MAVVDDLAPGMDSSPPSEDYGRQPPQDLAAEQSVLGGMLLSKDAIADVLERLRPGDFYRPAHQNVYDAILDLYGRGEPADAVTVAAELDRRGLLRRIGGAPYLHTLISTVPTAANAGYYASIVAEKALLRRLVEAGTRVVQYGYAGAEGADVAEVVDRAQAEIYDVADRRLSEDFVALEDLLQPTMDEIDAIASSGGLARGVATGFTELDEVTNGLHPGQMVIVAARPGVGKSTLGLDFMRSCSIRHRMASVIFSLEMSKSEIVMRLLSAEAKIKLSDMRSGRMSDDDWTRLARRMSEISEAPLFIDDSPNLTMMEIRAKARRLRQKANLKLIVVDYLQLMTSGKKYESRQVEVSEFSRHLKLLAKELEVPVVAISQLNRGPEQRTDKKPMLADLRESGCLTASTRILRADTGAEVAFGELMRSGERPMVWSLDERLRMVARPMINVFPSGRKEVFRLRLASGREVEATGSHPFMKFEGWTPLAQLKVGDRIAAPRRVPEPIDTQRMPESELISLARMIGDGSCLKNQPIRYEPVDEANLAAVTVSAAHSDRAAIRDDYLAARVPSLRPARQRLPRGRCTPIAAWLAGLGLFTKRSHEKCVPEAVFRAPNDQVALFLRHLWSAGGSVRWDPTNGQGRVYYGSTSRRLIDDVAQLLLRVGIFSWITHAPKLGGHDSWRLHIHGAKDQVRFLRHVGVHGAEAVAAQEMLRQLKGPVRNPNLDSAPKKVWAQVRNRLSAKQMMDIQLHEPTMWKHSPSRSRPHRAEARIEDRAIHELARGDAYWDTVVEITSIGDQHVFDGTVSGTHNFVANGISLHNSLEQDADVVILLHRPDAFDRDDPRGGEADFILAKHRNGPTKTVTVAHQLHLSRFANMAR
As to the kind of experiment: DnaB intein splicing inhibitors, dose response, biochemical, cell-free fluorescence (AID 449749). It is filed as functional.

Experiment [10] deals with Heat shock protein HSP 90-alpha (Homo sapiens, UniProt P07900). The format is functional, organism-based.
Experiment [11] addresses T2, Protein RecA (Mycobacterium tuberculosis, UniProt P9WHJ3).
T2 sequence (P9WHJ3 whole entry): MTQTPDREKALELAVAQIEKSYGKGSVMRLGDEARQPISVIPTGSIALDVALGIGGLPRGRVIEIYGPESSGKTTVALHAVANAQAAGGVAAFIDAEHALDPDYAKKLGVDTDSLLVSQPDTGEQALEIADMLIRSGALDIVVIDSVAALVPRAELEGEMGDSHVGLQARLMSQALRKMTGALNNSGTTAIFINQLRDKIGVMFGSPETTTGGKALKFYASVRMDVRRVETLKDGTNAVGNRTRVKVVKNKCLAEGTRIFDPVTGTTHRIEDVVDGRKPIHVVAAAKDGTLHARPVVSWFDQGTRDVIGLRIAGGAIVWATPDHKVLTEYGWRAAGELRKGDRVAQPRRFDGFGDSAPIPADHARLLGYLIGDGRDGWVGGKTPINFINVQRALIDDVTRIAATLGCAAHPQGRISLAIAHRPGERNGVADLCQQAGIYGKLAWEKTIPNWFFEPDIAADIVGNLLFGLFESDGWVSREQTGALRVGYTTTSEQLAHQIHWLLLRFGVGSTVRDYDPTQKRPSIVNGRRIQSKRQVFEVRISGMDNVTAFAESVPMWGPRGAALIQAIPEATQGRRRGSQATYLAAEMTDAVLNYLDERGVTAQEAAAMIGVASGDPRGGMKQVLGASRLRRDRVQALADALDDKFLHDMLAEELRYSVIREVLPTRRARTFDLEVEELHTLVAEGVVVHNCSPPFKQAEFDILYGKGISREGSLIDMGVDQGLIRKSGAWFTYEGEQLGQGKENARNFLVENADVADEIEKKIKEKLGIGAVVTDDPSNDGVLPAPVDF
As to the kind of experiment: Fluorescence Cell-Free Homogeneous Dose Retest to Identify Inhibitors of RecA-Intein Splicing Activity. [Related pubchem assays (depositor defined):AID2097, AID2223, AID489010, AID492950]. The format is functional.

Experiment [12] relates to CHO. In words: CHO cell viability loss, potency – luminescence, cytotoxicity control for TLR9-MyD88 binding inhibitor project, dose response (AID 588339).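 Also: CHO cells stably coexpressing TLR9 and MyD88 fusions from primary screen; compound exposure lasted 48 hours before viability readout.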 As to conditions: Cricetulus griseus. The format is functional, cell-based, hamster.
Experiment [13] addresses T3, Sphingosine 1-phosphate receptor 4 (Homo sapiens, UniProt O95977).
T3 sequence (O95977 whole entry): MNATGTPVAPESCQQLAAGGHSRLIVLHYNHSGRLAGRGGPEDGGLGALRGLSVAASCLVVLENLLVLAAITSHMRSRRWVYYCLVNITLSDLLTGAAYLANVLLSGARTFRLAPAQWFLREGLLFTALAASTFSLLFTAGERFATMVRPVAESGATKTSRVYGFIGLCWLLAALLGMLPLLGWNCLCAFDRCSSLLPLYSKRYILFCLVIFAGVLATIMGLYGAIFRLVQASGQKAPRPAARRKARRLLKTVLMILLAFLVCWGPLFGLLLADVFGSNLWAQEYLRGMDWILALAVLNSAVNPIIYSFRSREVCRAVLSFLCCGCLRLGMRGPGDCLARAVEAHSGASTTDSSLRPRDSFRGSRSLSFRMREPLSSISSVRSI
As to the kind of experiment: Fluorescence dose response cell-based high throughput screening assay for antagonists of the Sphingosine 1-Phosphate Receptor 4 (S1P4). [Related pubchem assays: 1524 (Confirmation in triplicates.), 1510 (Primary screen.)]. The format is functional.

The target in experiment [14] is Beta Lactamase (Pseudomonas aeruginosa, UniProt Q932Y6). As to the kind of experiment: BLA reporter interference, concentration series – BLA reporter cells, FRET fluorescence, artefact control for TLR9-MyD88 binding inhibitor project, dose response (AID 588341).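 Also: cell based assay in CHO-K1 cells stably expressing beta-lactamase.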 It is filed as cell-based.
Beta Lactamase, sequence (Q932Y6 whole entry): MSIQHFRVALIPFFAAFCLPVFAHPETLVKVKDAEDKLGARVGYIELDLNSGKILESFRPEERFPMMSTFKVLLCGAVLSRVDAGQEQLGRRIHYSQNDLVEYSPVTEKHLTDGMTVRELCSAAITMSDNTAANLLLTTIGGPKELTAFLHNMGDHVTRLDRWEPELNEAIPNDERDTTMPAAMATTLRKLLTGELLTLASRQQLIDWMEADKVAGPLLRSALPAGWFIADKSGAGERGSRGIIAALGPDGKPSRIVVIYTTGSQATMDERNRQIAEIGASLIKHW
A short description of experiment [15]: THP-1 cell cytotoxicity, dose response, cytotoxicity control for non-replicating M. tuberculosis project (AID 489025). The format is functional.
Experiment [16] concerns the target NS3 (Hepatitis C virus, UniProt A3EZJ3). As to the kind of experiment: PubChem AID 2173. Also noted: species or system Hepacivirus hominis.
The nature of experiment [17]: viability of uninfected HEp-2 cells – cell-based, HTS, cytotoxicity control for RSV inhibitor project, dose response (AID 2410). To be noted: human respiratory syncytial virus. It is filed as functional.
Experiment [18] has as its target T4, Calpain-2 catalytic subunit (Sus scrofa, UniProt P43367).
T4 sequence (P43367 whole entry): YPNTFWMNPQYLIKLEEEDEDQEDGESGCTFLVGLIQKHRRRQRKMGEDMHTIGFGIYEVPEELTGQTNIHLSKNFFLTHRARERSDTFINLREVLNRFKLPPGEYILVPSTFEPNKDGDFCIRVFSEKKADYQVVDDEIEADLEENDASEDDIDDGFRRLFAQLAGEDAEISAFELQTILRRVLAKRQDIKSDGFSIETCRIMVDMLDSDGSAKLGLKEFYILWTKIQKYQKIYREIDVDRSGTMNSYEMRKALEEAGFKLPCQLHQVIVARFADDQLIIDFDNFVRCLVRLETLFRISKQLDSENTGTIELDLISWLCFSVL
In words: m-calpain protease blockers, concentration series – biochemical, fluorogenic peptide substrate, dose response (AID 1420). It is filed as functional.

The nature of experiment [19]: antiviral protection against BTV-induced cell death – arbovirus, BSR cells, confirmation (AID 1250).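 Also: protection from viral cytopathic effect measured as cell viability by ATP luminescence.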 It is filed as functional.

Structures are written as SMILES. The source made the active and inactive calls.

NS3, sequence (A3EZJ3 whole entry): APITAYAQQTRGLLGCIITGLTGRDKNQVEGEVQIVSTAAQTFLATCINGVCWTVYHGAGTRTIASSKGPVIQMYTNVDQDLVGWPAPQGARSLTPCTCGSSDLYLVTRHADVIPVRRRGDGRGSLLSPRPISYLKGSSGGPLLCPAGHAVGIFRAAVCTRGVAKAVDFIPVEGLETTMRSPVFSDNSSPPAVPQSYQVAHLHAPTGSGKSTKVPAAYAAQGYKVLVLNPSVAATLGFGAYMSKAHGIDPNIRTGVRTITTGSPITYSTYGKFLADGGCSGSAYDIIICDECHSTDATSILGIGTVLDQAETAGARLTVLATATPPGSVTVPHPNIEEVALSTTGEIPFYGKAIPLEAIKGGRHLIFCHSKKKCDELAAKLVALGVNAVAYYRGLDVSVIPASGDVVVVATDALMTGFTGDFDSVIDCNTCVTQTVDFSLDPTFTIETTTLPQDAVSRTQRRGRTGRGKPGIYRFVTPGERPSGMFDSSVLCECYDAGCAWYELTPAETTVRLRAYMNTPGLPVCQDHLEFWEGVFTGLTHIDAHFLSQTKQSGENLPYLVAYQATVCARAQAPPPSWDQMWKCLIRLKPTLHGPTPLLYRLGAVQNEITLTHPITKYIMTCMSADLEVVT

Consider `O=C(OCn1ncc(Br)c(Br)c1=O)c1ccccc1Cl`, for which the CC50 in [1] was 17.8 µM (active); in experiment [5], 5.45 µM (active); in [8], > 1.22 µM (not active); in experiment [15], 5.77 µM (active). Moreover, the concentration for half-maximal inhibition (IC50) in experiment [2] is 15.3 µM (not active); in [4], 3.24 µM (active); in [12], 1.46 µM (active); in experiment [13], 1.75 µM (active); in experiment [14], > 49.8 µM (inactive). The EC50 is 1.88 µM (active) in experiment [3], 2.03 µM (active) in experiment [7] and 0.472 µM (active) in experiment [11]. Further, the AC50 was 4.76 µM (active) in experiment [6], 2 µM (active) in experiment [9] and 8.37 µM (active) in experiment [10].

As for `Cc1cccc(NC2=NC(=O)/C(=C/C=C/c3ccco3)S2)c1C`, in [16], the IC50 is 5.49 µM (active). Further, the CC50 in [17] was 12.1 µM (active).

As to `COc1ccc(C(=O)NCC(C)(C)SCc2c(C)cc(C)cc2C)cc1`, the IC50 in experiment [18] was > 50 µM (not active); in experiment [19] it was 24.1 µM (active).
